Experimental data: ChEMBL document CHEMBL1201862, “PubChem BioAssay data set” (2004)
The source made the active and inactive calls.

Tests used:
BJ [1] = experiment: BJ-TERT fibroblast viability loss – cell-based, RAS-independent, luminescence, dose response (AID 1933); format: functional; settings: Homo sapiens
[2] = DRD fibroblast viability loss – cell-based, non-viral oncogenic, luminescence, dose response (AID 1934); format: functional; settings: Homo sapiens
[3] = Luminescence Cell-Based Dose Retest to Confirm Inhibitors of Cancer Stem Cells. [Related pubchem assays (depositor defined):AID2717, AID2721]; format: functional; settings: Homo sapiens
BJ [4] = experiment: cells; format: functional, cell-based; settings: Homo sapiens
BJ [5] = experiment: BJ-TERT-LT-ST fibroblast viability loss – cell-based, RAS-independent, luminescence, dose response (AID 1935); format: functional; settings: Homo sapiens;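 note: BJ fibroblasts immortalized with TERT plus LT and ST oncogenes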
BJ [6] = experiment: growth inhibition of engineered Ras-driven BJ cells – cell-based, alamar blue fluorescence, cherrypicked samples, dose response (AID 2631); format: functional; settings: Homo sapiens;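 note: confirmatory dose-response assay in RAS-dependent BJ fibroblasts engineered with TERT, LT and ST, with cytotoxicity read by fluorescence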
HEK293 [7] = experiment: NOD2 signaling inhibitors in MDP-stimulated cells, cell-based, uHTS, luminescence (AID 2001); format: functional; settings: Homo sapiens
HEK293 [8] = experiment: cells; format: functional, cell-based; settings: Homo sapiens
HEK293 [9] = experiment: cells; format: functional, cell-based; settings: Homo sapiens; remark: listed apart in the source
HEK293 [10] = experiment: inhibition of NOD1-driven NF-kB reporter – cell-based, luminescence, uHTS, primary screen (AID 1578); format: functional; settings: Homo sapiens
[11] = target: Peroxisome proliferator-activated receptor gamma/Nuclear receptor coactivator 1 (Homo sapiens, UniProt P37231); experiment: (§1) TR-FRET dose response biochemical High Throughput Screening assay for agonists of the steroid receptor coactivator 1 (SRC-1) recruitment by the peroxisome proliferator-activated receptor gamma (PPAR gamma): non-selective agonists. [Related pubchem assays (depositor defined):AID1300, AID1808, AID504735, AID631]; format: protein assay
[12] = target: Peroxisome proliferator-activated receptor gamma/Nuclear receptor coactivator 3 (Homo sapiens, UniProt P37231); experiment: as §1, with “3 (SRC-3)” for “1 (SRC-1)”, “assays: 1301 (Confirmation screen.), 1048 (Primary screen.)]” for “assays (depositor defined):AID1300, AID1808, AID504735, AID631]”; format: functional
[13] = target: Peroxisome proliferator-activated receptor gamma/Nuclear receptor coactivator 2 (Homo sapiens, UniProt P37231); experiment: TR-FRET dose response biochemical High Throughput Screening assay for agonists of the steroid receptor coactivator 2 (SRC-2) recruitment by the peroxisome proliferator-activated receptor gamma (PPAR gamma): non-selective agonists. [Related pubchem assays: 1297, 1032 ]; format: functional
[14] = microbe, parasite or virus in culture; format: functional; settings: Mycobacterium tuberculosis
[15] = blockers of HIV-1 ZM109 envelope-driven cell-cell fusion – HeLa effector, CEM target cells, luciferase, cherry-pick, dose response (AID 652058); format: functional, cell-based;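 note: luciferase signal from HIV-1 Env mediated cell-cell fusion of effector and target cells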
[16] = blockers of HIV-1 envelope-mediated cell-cell fusion – cherry-pick, dose response (AID 652057); format: functional, cell-based
[17] = HIV-1 AD8 envelope cell-cell fusion blockers – cherry-pick, dose response (AID 652062); format: functional, cell-based;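 note: luciferase signal from cell-cell fusion driven by HIV-1 clade B AD8 Env; potency is for inhibitors of fusion seen as a drop in luminescence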
[18] = off-target signal loss in HeLa-CEM21 co-culture – HeLa F-luc CTL cells, cherry-picked, counter-screen for HIV-1 Env fusion inhibitor project, dose response (AID 652040); format: functional, cell-based;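 note: potency for signal decrease marking cytotoxic or nonspecific inhibition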
[19] = Luminescence Cell-Based Dose Confirmation HTS to Identify Inhibitors of Platelet Dense Granule Release. [Related pubchem assays: 1663 (Primary HTS), 1678 (Summary of Project)]; format: functional
[20] = target: Luciferin 4-monooxygenase (Photinus pyralis, UniProt P08659); experiment: inhibition of purified Photinus pyralis luciferase – biochemical, luminescence, dose response (AID 1891)
SN12K1 = experiment: cells; format: functional; settings: Homo sapiens
P388/ADR = experiment: cells; format: functional; settings: Mus musculus
P388 = experiment: cells; format: functional; settings: Mus musculus
H4 = experiment: Luminescence Cell-Based Dose Response HTS to Identify Activators of 5'UTR Stem-Loop Driven Prion Protein mRNA Translation in H4 Neuroglioblastoma Cells. [Related pubchem assays: 1829 (Project Summary), 1814 (Primary HTS)]; format: functional; settings: Homo sapiens

Chain of Peroxisome proliferator-activated receptor gamma/Nuclear receptor coactivator 3 (P37231 whole entry): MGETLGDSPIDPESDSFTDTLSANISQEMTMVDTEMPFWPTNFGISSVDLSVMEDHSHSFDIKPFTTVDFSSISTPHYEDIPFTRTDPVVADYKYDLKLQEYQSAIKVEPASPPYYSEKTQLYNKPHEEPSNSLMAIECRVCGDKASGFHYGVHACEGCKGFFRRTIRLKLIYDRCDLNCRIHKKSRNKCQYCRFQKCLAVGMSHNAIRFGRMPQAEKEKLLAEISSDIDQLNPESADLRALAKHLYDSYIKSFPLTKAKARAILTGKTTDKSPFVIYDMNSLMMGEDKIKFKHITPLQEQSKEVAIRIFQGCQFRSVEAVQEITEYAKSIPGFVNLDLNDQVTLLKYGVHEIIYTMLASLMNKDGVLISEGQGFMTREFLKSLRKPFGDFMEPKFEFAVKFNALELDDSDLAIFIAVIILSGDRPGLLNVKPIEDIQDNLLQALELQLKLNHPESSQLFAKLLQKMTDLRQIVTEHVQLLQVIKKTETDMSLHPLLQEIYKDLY
Chain of Peroxisome proliferator-activated receptor gamma/Nuclear receptor coactivator 3 (Q9Y6Q9 whole entry, further chain): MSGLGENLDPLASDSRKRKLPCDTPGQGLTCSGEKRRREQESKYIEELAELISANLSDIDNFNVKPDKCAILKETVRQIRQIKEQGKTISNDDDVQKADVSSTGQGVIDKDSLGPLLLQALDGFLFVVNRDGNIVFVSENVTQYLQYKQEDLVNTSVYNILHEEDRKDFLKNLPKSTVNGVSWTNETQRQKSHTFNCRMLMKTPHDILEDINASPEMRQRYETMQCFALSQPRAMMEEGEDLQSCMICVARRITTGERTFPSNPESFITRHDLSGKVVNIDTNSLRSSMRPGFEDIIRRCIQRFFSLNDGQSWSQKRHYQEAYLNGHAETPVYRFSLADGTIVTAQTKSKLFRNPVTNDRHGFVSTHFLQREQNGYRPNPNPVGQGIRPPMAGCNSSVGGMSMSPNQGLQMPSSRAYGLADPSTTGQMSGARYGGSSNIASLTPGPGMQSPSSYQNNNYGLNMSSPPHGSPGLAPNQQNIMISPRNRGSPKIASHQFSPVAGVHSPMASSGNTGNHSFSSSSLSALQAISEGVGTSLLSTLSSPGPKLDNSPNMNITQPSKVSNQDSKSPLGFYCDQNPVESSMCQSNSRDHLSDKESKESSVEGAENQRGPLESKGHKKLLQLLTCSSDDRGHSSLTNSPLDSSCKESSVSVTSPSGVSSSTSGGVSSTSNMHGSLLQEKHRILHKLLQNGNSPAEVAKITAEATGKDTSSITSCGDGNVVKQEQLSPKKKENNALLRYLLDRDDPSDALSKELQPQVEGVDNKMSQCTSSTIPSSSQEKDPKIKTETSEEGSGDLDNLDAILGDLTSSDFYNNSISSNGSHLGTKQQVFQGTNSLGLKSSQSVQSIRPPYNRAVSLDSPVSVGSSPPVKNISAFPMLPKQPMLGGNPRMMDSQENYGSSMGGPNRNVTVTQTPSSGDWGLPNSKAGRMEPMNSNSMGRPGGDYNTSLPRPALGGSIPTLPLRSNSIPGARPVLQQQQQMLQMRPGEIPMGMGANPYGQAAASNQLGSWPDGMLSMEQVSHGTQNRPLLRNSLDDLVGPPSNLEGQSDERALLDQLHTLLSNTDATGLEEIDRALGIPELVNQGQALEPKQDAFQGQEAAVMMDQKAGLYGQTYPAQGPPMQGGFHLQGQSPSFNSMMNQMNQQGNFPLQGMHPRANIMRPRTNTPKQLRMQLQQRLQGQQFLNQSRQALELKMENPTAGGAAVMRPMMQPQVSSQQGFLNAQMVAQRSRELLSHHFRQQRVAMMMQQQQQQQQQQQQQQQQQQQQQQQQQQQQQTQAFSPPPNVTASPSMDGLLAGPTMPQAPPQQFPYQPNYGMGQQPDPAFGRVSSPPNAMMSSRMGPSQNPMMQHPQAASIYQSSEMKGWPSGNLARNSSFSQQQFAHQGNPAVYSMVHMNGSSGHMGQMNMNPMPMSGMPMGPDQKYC
Chain of Peroxisome proliferator-activated receptor gamma/Nuclear receptor coactivator 1 (P37231 whole entry): as the sequence (P37231 whole entry) above
Chain of Peroxisome proliferator-activated receptor gamma/Nuclear receptor coactivator 1 (Q15788 whole entry, further chain): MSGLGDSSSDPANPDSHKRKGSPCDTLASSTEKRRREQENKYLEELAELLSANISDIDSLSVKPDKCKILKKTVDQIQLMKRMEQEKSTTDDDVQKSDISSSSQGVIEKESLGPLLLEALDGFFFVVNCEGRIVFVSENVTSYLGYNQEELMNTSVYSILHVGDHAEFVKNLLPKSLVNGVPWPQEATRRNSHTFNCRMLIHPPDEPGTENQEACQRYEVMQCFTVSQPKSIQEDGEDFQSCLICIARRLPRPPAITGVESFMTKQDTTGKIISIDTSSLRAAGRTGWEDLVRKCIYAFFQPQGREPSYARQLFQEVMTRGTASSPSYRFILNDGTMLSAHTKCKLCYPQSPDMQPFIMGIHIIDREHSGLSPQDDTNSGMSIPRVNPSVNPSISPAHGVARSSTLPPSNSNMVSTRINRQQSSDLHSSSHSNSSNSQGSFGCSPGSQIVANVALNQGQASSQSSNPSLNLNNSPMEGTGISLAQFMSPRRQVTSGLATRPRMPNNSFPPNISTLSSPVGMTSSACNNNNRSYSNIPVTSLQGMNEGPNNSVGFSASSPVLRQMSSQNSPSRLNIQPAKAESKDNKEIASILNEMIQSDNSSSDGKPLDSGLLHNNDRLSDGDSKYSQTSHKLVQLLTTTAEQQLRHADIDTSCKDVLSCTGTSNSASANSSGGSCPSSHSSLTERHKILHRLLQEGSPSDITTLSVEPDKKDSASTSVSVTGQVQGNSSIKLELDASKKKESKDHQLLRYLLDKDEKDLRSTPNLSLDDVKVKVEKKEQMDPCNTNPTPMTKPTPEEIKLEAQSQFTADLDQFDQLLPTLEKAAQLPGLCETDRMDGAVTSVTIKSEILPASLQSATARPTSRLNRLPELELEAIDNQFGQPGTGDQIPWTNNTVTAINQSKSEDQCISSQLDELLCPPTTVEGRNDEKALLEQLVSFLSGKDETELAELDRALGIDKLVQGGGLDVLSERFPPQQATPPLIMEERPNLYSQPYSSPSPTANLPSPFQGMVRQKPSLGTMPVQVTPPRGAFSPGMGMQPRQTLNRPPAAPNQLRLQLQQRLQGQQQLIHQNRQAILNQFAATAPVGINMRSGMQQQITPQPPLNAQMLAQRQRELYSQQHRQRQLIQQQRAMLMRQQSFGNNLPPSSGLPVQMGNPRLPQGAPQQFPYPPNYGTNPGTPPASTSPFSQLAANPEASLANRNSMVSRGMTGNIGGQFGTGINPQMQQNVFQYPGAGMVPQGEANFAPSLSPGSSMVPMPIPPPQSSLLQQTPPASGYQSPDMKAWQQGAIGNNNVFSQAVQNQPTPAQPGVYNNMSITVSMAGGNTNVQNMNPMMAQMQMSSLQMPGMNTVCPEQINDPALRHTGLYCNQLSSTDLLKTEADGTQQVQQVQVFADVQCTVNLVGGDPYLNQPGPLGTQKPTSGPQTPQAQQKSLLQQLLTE
Chain of Luciferin 4-monooxygenase (P08659 whole entry): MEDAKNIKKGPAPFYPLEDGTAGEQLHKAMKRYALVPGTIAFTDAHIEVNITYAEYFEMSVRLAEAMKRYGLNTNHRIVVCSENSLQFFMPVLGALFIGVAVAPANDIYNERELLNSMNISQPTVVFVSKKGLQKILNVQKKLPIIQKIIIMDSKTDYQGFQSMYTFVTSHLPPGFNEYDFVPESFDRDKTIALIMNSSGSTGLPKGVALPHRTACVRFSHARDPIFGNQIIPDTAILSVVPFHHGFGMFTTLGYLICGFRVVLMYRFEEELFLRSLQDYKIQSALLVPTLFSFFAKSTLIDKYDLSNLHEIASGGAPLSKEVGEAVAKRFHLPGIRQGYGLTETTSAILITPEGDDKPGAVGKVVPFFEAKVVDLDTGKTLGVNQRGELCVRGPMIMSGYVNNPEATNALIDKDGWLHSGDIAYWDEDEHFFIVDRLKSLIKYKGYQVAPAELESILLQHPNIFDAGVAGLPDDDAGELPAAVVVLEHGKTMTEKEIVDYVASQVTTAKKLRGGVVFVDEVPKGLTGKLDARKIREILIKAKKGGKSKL

Cn1cnc(Sc2[nH]cnc3ncnc2-3)c1[N+](=O)[O-]
EC50 (BJ [1]): > 150 µM (not active) | EC50 [2]: 13 µM (active) | AC50 [3]: 1.42 µM (active) | EC50 (BJ [4]): 8.4 µM (active) | EC50 (BJ [5]): > 150 µM (not active) | EC50 (BJ [6]): > 133 µM (inactive)

COc1ccc(NS(=O)(=O)c2ccc3c(c2)Cc2ccccc2-3)cn1
IC50 (HEK293 [7]): 8.27 µM (active) | IC50 (HEK293 [8]): > 20 µM (inactive) | IC50 (HEK293 [9]): 9.79 µM (active) | EC50 (HEK293 [10]): 5.22 µM (active)

N#Cc1c(Cl)nc(SCc2ccccc2)nc1-c1ccccc1
EC50 [11]: 4.02 µM (active) | EC50 [12]: > 79.4 µM (not active) | EC50 [13]: 5.16 µM (active)

CCc1ccc(-c2cc(C)no2)cc1S(=O)(=O)NCCCN1CCN(c2ccccc2)CC1
IC50 (HEK293 [7]): 4.26 µM (active) | IC50 (HEK293 [8]): 7.44 µM (active) | IC50 (HEK293 [9]): 4.42 µM (active) | EC50 (HEK293 [10]): 6.88 µM (active) | CC50 [14]: 30.9 µM (active)

CC(C)CN(C(=O)c1ccc(S(=O)(=O)N2CCCCC2)cc1)C1CCS(=O)(=O)C1 (centres undefined)
AC50 [15]: 6.21 µM (active)

C=C1CCN([C@@H](Cc2ccccc2)C(=O)NCCC(C)C)S(=O)(=O)c2ccccc21
AC50 [15]: 3.56 µM (active) | AC50 [16]: 3.91 µM (active) | AC50 [17]: 24.1 µM (active) | AC50 [18]: 6.85 µM (active)

O=c1c2cn[nH]c2[nH]c(=S)n1-c1cccc2ccccc12
EC50 [11]: > 79.4 µM (inactive) | EC50 [12]: > 79.4 µM (not active) | EC50 [13]: > 79.4 µM (not active)

COc1ccc2nc(NC(=O)c3ccoc3C)sc2c1
EC50 [19]: 0.468 µM (active) | EC50 (BJ [6]): > 133 µM (inactive) | EC50 [20]: 0.263 µM (active)

Nc1ncn([C@H]2C[C@H](O)[C@@H](CO)O2)c(=O)n1 [DECITABINE]
GI50 (SN12K1): > 375 µM (inactive) | GI50 (P388/ADR): 0.0959 µM (active) | GI50 (P388): 0.051 µM (active) | EC50 (H4): 94.9 µM (active) | AC50 [18]: > 70 µM (inactive)
